Consider 52 molecules from PubChem BioAssay AID1996.

By solubility (kinetic) is commonly meant the concentration staying in solution when a stock, usually in DMSO, is diluted into the medium.

The structures appear in SMILES notation. ≈ marks a conversion by molar mass, not a printed value. Some results are limits rather than exact numbers.

The conditions of this series: buffer; pH 7.4; 200.0 µM.
With `COc1ccc(NC(=O)Nc2cnccn2)cc1OC`, the kinetic solubility is above 41.1 µg/mL. Regarding `Cc1cnc(NC(=O)c2ccc(OCC3CCCO3)cc2)s1` (configuration not stated), the kinetic solubility was found to be 7.8 µg/mL (≈ 24.5 µM). The value for `Cc1ccc(C)c(NC(=O)C(c2ccccc2)N2CCN(CC(=O)N3CCOCC3)CC2)c1` (configuration not stated) was above 67.6 µg/mL; that for `O=C(Cc1ccc2ccccc2c1)Nc1ccccc1Br` was below 0.7 µg/mL; that for `COc1ccccc1NC(=S)N1CCCCCC1` was above 39.7 µg/mL. For `O=C(Nc1cc([N+](=O)[O-])ccc1N1CCCC1)c1ccco1`, the solubility (kinetic) was 40.9 µg/mL (≈ 136 µM). In turn, `CSCCC(NS(=O)(=O)c1ccccc1F)C(=O)NCC(c1ccco1)N(C)C` (configuration not stated) showed a solubility (kinetic) above 66.5 µg/mL. In the case of `O=C(CNCc1cccc2ccccc12)Nc1ccccc1[N+](=O)[O-]` it was 5.4 µg/mL (≈ 16.1 µM); in that of `CCCCCCC(=O)Nc1ccc(Br)cn1`, 1.6 µg/mL (≈ 5.61 µM). In the case of `CCOC(=O)C1CCCN(S(=O)(=O)c2ccc3ccccc3c2)C1` (configuration not stated) it was 13 µg/mL (≈ 37.4 µM).

In the case of `CN1CCN(S(=O)(=O)c2ccc(N(C)Cc3c(F)cccc3Cl)nc2)CC1`, the solubility (kinetic) came to 5.4 µg/mL (≈ 13.1 µM). This solubility kinetic lies about 2.4-fold lower than the previous one.

`CC(C)OC(=O)c1cc2c(=O)[nH]c(C(Cl)(Cl)Cl)nc2o1` came in with a solubility (kinetic) of 47.6 µg/mL (≈ 140 µM). In the case of `CCC1CCCCN1CC(O)COCc1cccc(OC)c1` (configuration not stated) it was 31.4 µg/mL (≈ 102 µM); in that of `Cc1nc(N)sc1C(=O)OCC(C)C`, above 32.1 µg/mL; in that of `COc1cccc(NC(=O)c2ccc3c(c2)OCCO3)c1`, above 42.8 µg/mL. In the case of `COc1ccccc1NC(=O)/C(=C/c1ccncc1)NC(=O)c1ccccc1` it was 22.2 µg/mL (≈ 59.5 µM); in that of `Cc1cccc(OCC(=O)Nc2ccc(NC(=O)c3ccco3)c(C)c2)c1`, 4.4 µg/mL (≈ 12.1 µM). The value for `CCN(Cc1ccccc1)C(=O)c1ccc(SC)cc1OC` was 45.8 µg/mL (≈ 145 µM). Regarding `Cc1cc(NC(=O)CCCn2cnc([N+](=O)[O-])n2)no1`, the solubility (kinetic) was above 42 µg/mL. `Cc1cc(Nc2ccccc2)n(-c2ccc(C(=O)O)cc2)n1`: the kinetic solubility is above 44 µg/mL.

Molecule `Cc1ccc(CN2CCN(C3CCCC3)C(CCO)C2)s1` (configuration not stated) returned a kinetic solubility of 43.7 µg/mL (≈ 142 µM). In the case of `Nc1ccc(C(=O)OCc2nc3ccccc3s2)cc1` it was 27 µg/mL (≈ 95 µM); in that of `Cc1nc(NC(=O)c2c(-c3ccccc3)noc2C)sc1C(=O)N(C)C`, above 55.6 µg/mL.

The molecule `O=C(COC(=O)Cc1c[nH]c2ccccc12)Nc1cc(S(=O)(=O)N2CCOCC2)ccc1Cl` yielded a kinetic solubility of 12.7 µg/mL (≈ 25.8 µM). In turn, `CCN(C(=O)C1=COCCO1)c1nc2c(C)cccc2s1` displayed a kinetic solubility of 7.5 µg/mL (≈ 24.6 µM).

As to `CN(C)CCCNc1oc(/C=C/c2ccccc2)nc1C#N`, the kinetic solubility was above 44.5 µg/mL. The molecule `COc1ccc(C(=O)NC2CCN(C(=O)Nc3ccc(F)cc3)CC2)cc1` displayed a kinetic solubility of 0.9 µg/mL (≈ 2.42 µM). `NC1=NC(=O)/C(=C/c2ccc(Cl)cc2Cl)S1` displayed a solubility (kinetic) of 1.3 µg/mL (≈ 4.76 µM). `Nc1nc(-c2ccccc2)c(-c2ccccc2)o1` displayed a solubility (kinetic) above 35.4 µg/mL.

On to `O=C(CCc1ccc(S(=O)(=O)N2CCOCC2)cc1)Nc1ccc(F)cc1[N+](=O)[O-]`, for which the solubility (kinetic) is 14 µg/mL (≈ 32 µM). Turning to `Cc1ccc(O)c(-c2cc(-c3ccc(F)cc3)no2)c1`, the solubility (kinetic) is below 0.6 µg/mL.

With `Cc1cc(NC(=O)c2cccs2)no1`, the solubility (kinetic) was above 31.2 µg/mL.

With `O=C(O)c1ccc(NC(=O)C(c2ccccc2)c2ccccc2)cc1`, the solubility (kinetic) was above 49.7 µg/mL.

Molecule `O=C(c1ccccc1)N1CCN(CCc2ccccn2)CC1` gave a kinetic solubility above 44.3 µg/mL. `CCOC(=O)NC(=O)COC(=O)c1cccc2ccccc12` displayed a solubility (kinetic) above 45.2 µg/mL. As to `O=C(CCCOC(=O)c1cccnc1Cl)c1ccc(Br)cc1`, the solubility (kinetic) stood at 6.6 µg/mL (≈ 17.2 µM). In the case of `CCOn1c(=O)c(-c2ccc(C)cc2)[n+]([O-])c2ccccc21` it was 33.5 µg/mL (≈ 113 µM). The value for `CCN(CC(=O)N1CCCCCC1)S(=O)(=O)c1ccc(C)cc1` was above 50.8 µg/mL; that for `CCOC(=O)C1=C(C)NC(=S)NC1c1ccco1` (configuration not stated) was 39.9 µg/mL (≈ 150 µM). In the case of `CC(NC(=O)C1c2ccccc2Oc2ccccc21)C1CCCO1` (configuration not stated) it was 37.8 µg/mL (≈ 117 µM); in that of `O=C(NC1CCCCC1)C1CCCN1C(=O)Nc1ccccc1` (configuration not stated), above 47.3 µg/mL; in that of `COc1cc(C2SCC(=O)N2Cc2ccccc2)ccc1O` (configuration not stated), above 47.3 µg/mL. `N#C/C(=C/c1cc[nH]c1)C(N)=S`: the solubility (kinetic) is above 26.6 µg/mL. `COc1ccc(NC(=O)c2ccccc2SC)c(OC)c1`: the solubility (kinetic) is above 45.5 µg/mL. For `NC1=NC(=O)/C(=C\c2ccsc2)S1`, the solubility (kinetic) was determined as 28.6 µg/mL (≈ 136 µM). In the case of `O=C(O)CCCC(=O)Nc1ccccc1Oc1ccccc1`, the kinetic solubility is above 44.9 µg/mL.

Molecule `CCN(Cc1ccncc1)C(=O)Cc1cccs1` returned a solubility (kinetic) above 39.1 µg/mL. Turning to `S=C(NCc1ccco1)N1CCN(c2ccccc2Cl)CC1`, the solubility (kinetic) was 19.5 µg/mL (≈ 58.1 µM). As for `CC(C)C(=O)NC(CC(=O)O)c1ccccc1` (configuration not stated), the solubility (kinetic) was above 35.3 µg/mL. The molecule `CCN(C(=O)COC(=O)c1ccc(Cl)cc1N)C1CCCCC1` came in with a solubility (kinetic) of 2.7 µg/mL (≈ 7.97 µM).

In the case of `Cc1nsc2nc3c(F)c(F)c(F)c(F)c3cc12`, the solubility (kinetic) was found to be 4.4 µg/mL (≈ 16.2 µM). In the case of `Cc1ccc2nc(-c3cccnc3)c(Nc3ccccc3C)n2c1`, the solubility (kinetic) is 2.2 µg/mL (≈ 7 µM).
